Tested on: FAM-Apt (DNA, aptamer) ATCACGTGTTGTCTCTCTGTGTCTCGTG
Assay: FRET strand-displacement assay (fluorescence recovery)
Details: 20 mM Mg-acetate, 100 mM Na-acetate; Tris-acetate pH 8.5, 25 °C; 3'-RTQ1 cDNA CAGAGAGAC not displaced; tested at 1 µM

binding	SMILES
no	C[C@@H]1Cc2c(Cl)cc(C(=O)N[C@@H](Cc3ccccc3)C(=O)O)c(O)c2C(=O)O1
no	C[C@H]1CCCC(=O)CCC/C=C/c2cc(O)cc(O)c2C(=O)O1

— paper PMC10707992 (2023)
